Experimental data: patent EP1439394A1, “Method and apparatus for etablishing ADME profiles in the early stage of develloppment of active substances” (priority 2002, dated 2004)

Assays:
HSA = HSA (Homo sapiens, UniProt P02768); conditions: standard ligands immobilised on the array; protein not named, HSA per Example 2 / Abb. 2
Text: (§1) Wird SPR als Detektionsmethode eingesetzt, ist es vorteilhaft, zunächst eine Messung des Microarrays ohne Lösung (Luftmessung) durchzuführen und danach eine Messung des Microarrays mit der Pufferlösung durchzuführen, in der anschließend das ADME relevante Biomolekül gelöst wird (Puffermessung). Anschliessend wird die Pufferlösung gegen eine Lösung des ADME relevanten Biomoleküls in demselben Puffer ausgetauscht und nochmals gemessen (Proteinmessung). Die Puffermessungen und die Proteinmessungen werden mittels der Luftmessung normiert und anschließend wird die Differenz zwischen den beiden Minima der Proteinmessung und der Puffermessung ermittelt.
(§2) Die so ermittelte Verschiebung (in nm) zwischen den beiden (ggf. normierten) Messungen ist ein Maß für die Bindungsstärke zwischen den immobilisierten Liganden und dem ADME relevanten Biomolekül (s. Beispiel 1).
Anschließend wurde der Chip je dreifach in 1. Methanol/1%TFA, 2. H2O/0,1% TFA und 3. H2O/0,02M HOAc gewaschen sowie unter Stickstoffstrom getrocknet.
Alle Verbindungen weisen eine Carboxy-Funktionalität auf, die mit einem Amin umgesetzt wurden, das endständig eine Thiolgruppe zur Anbindung an die Maleimid-Kopfgruppe des Ankers trägt.
Die Wirkstoffvorstufen, die so auf die Oberfläche gebracht werden, sind in einer 40 µM Lösung aus 0,2 M Phosphatpuffer (Pi), 5 mM EDTA und 20% (v/v) EG, pH 7.0, gelöst. Das Pinning Tool setzt ca. 10 nl pro Spot ab, so daß in jedem Spot ein hoher Überschuß des Wirkstoffvorstufen-Tag Konjugates gegenüber der oberflächengebundenen Maleimid-Gruppe gewährleistet wird und somit eine vollständige Belegung der Maleimid-Gruppen erreicht werden kann. In den freien Bereichen wurden die Maleimid-Gruppen anschließend durch Inkubation des Chips in 0,2 M Pi, pH 7.0, 10mM Mesh für 30 min abgesättigt. Danach wurde je dreimal mit 1. H2O/0,02M HOAc, 2. MeOH/H2O und 3. 2-Propanol gewaschen sowie unter Stickstoffstrom getrocknet.
Die Verschiebung der Wellenlänge wurde nach 120 min aufgezeichnet. Durch die eindeutige Zuordnung der (x,y)-Koordinate zu einer bestimmten Verbindung ist diese eindeutig identifizierbar. Wirkstoffvorstufen mit hohen Verschiebungswerten sind kritisch im Hinblick auf die weitere Wirkstoffentwicklung.
Das Festphasenscreening wurde durchgeführt wie in Beispiel 1 beschrieben.

CYP3A4 = CYP3A4 (Homo sapiens, UniProt P08684); conditions: standard ligands immobilised on the array; CYP3A4 per Example 3 / Abb. 3
CYP3A4, sequence (P08684 whole entry): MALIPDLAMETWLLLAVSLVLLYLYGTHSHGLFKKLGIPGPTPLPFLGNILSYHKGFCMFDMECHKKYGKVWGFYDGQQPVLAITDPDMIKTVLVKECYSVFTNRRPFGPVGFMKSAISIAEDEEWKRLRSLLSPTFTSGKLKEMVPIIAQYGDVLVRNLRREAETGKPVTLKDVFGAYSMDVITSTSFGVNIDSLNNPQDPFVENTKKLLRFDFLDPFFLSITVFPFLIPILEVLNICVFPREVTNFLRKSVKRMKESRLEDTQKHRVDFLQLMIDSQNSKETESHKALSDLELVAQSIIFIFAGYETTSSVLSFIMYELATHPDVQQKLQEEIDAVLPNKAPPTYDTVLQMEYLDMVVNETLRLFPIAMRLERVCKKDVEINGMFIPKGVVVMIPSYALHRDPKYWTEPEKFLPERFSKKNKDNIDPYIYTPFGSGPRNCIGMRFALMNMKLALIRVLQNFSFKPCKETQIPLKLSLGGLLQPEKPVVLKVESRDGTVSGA
Text: as §1, §2
Die Verschiebung der Wellenlänge wurde nach 120 min aufgezeichnet. Durch die eindeutige Zuordnung der (x,y)-Koordinate zu einer bestimmten Verbindung ist diese eindeutig identifizierbar.
3 gezeigten Standardliganden und deren Festphasenscreening gegen CYP3A4 eine Klassifizierung in sehr schwach (<1,6 nm), schwach (1,6-3,2 nm), mittel (3,2-4,8 nm), stark (4,8-6,4 nm) und sehr stark (>6,4 nm) durchgeführt. Anhand der bekannten Metabolismuseigenschaften der Standardliganden ist eine Zuordnung dieser ADME Eigenschaft für nicht bekannte Wirkstoffvorstufen möglich.

HSA, sequence (P02768 25-609): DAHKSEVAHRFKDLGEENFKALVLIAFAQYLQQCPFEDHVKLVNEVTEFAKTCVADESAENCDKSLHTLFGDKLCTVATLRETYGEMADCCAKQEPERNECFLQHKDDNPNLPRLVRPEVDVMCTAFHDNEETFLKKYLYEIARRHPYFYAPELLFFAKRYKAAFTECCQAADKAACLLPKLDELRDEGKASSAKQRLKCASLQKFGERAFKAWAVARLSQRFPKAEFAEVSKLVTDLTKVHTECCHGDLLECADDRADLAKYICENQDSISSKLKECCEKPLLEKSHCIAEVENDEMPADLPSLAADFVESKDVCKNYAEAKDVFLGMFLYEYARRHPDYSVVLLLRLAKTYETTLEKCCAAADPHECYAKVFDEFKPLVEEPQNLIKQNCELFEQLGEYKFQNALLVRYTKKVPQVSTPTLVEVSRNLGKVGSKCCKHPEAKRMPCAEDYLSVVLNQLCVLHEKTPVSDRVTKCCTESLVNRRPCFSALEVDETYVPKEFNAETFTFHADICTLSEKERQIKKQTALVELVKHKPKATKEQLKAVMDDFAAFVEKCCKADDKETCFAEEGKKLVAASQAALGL

C=C[C@H]1C[N@@]2CC[C@H]1C[C@@H]2[C@@H](O)c1ccnc2ccc(OC)cc12 [Chinidin]
Klassifizierung der Standardliganden für die Bestimmung von Distributionsparametern (HSA): schwach (schwach (0,7-1,4 nm))

CNCCC=C1c2ccccc2CCc2ccccc21 [Nortriptylin]
Klassifizierung der Standardliganden für die Bestimmung von Distributionsparametern (HSA): stark (stark (2,1-2,8 nm)) | Klassifizierung der Standardliganden für die Bestimmung von Metabolismusparametern (CYP3A4): schwach (schwach (1,6-3,2 nm))

CC(=O)[C@H]1CC[C@H]2[C@@H]3CCC4=CC(=O)CC[C@]4(C)[C@H]3CC[C@]12C [Progesteron]
Klassifizierung der Standardliganden für die Bestimmung von Metabolismusparametern (CYP3A4): sehr stark (sehr stark (>6,4 nm))

CNCCCN1c2ccccc2CCc2ccccc21 [Desimpramin]
Klassifizierung der Standardliganden für die Bestimmung von Distributionsparametern (HSA): mittel (mittel (1,4-2,1 nm)) | Klassifizierung der Standardliganden für die Bestimmung von Metabolismusparametern (CYP3A4): schwach (schwach (1,6-3,2 nm))

C=C[C@H]1C[N@@]2CC[C@H]1C[C@H]2[C@H](O)c1ccnc2ccc(OC)cc12 [Chinin]
Klassifizierung der Standardliganden für die Bestimmung von Distributionsparametern (HSA): schwach (schwach (0,7-1,4 nm))
